Laboratory results taken from US12011444B2, “N-substituted indole derivatives as PGE2 receptor modulators” (Idorsia Pharmaceuticals Ltd, priority 2015, dated 2024).
pIC50: −log10 of the molar value.

Assays:
[1] = molecular target: PTGER2 (EP2) (Homo sapiens (Human), UniProt P43116); assay: hEP2 b-arrestin assay (PathHunter HEK 293 PTGER2 b-arrestin cells); format: cell-based
Summary of the method: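 Readout is β-galactosidase complementation luminescence, expressed as percent of DMSO control (duplicates). PathHunter HEK293 EP2/β-arrestin 2 cells, grown 24 h, received compound for 15 min at 37 °C before a 120 min challenge with PGE2 at 5 μM final, followed by 1 h detection at room temperature.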

[2] = molecular target: PTRGER4 (EP4) (Homo sapiens (Human), UniProt P35408); assay: hEP4 b-arrestin assay (PathHunter HEK 293 PTGER4 b-arrestin cells); format: cell-based
Sequence of PTRGER4 (EP4) (P35408 whole entry, looked up, the tested form may be a part): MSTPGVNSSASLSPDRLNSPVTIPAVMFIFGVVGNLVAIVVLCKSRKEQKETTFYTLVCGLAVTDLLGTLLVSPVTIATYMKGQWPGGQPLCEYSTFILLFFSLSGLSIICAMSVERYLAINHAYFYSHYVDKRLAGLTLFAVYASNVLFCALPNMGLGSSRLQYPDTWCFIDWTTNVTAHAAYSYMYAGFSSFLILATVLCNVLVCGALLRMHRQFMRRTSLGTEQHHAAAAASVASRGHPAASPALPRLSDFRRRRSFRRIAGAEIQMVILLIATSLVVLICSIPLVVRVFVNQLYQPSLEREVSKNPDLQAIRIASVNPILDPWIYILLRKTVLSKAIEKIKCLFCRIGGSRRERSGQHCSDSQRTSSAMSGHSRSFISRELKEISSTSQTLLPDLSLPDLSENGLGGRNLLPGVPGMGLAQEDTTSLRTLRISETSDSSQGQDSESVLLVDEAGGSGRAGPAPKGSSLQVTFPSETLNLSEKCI
Summary of the method: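 Antagonist mode: compound is given 15 min at 37 °C, then 20 nM (final) PGE2 for 120 min, in HEK293 cells stably expressing EP4 fused to ProLink and β-arrestin 2 fused to EA. Recruitment read as β-gal luminescence after 1 h reagent at room temperature, as percent of DMSO control.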

[3] = hEP2 b-arrestin assay (values without asterisk)
[4] = hEP4 b-arrestin assay (values without asterisk)
[5] = antagonistic activity on hEP2, mean where measured multiple times
[6] = antagonistic activity on hEP4, mean where measured multiple times

Sequence of PTGER2 (EP2) (P43116 whole entry): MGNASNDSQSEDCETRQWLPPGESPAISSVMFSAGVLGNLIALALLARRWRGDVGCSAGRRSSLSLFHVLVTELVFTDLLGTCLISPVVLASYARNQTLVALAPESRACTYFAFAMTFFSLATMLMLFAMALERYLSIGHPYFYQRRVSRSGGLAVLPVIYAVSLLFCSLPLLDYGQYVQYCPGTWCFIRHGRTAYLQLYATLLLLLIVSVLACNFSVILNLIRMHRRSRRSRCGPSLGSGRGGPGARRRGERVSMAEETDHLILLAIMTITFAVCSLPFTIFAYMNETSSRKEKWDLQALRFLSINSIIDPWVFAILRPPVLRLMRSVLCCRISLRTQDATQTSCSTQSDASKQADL

SMILES	pIC50 [1, 3]	pIC50 [2, 4]	pIC50 [1, 5]	pIC50 [2, 6]
N#Cc1cc2c(Cl)cc(F)c(F)c2n1CCNc1cc(-c2cc(C(F)(F)F)c(C(=O)O)s2)ncn1 [Example 912, 5-{6-[2-(4-Chloro-2-cyano-6,7-difluoro-indol-1-yl)-ethylamino]pyrimidin-4-yl}-3-trifluoromethyl-thiophene-2-carboxylic acid]	8.40	7.54	–	–
COc1ccc(F)c2c1cc(C)n2CCNc1cc(-c2ccc3c(c2)CCN3)ncn1 [compound 67, [6-(2,3-Dihydro-1H-indol-5-yl)-pyrimidin-4-yl]-[2-(7-fluoro-4-methoxy-2-methyl-indol-1-yl)-ethyl]-amine]	–	–	8.00	7.23
COc1ccc(F)c2c1cc(C#N)n2CCNc1cc(-c2ccc(-c3cc(O)no3)cc2)ncn1 [Example 852, 7-Fluoro-1-(2-{6-[4-(3-hydroxy-isoxazol-5-yl)-phenyl]-pyrimidin-4-ylamino}-ethyl)-4-methoxy-1H-indole-2-carbonitrile]	7.92	7.66	–	–
COc1ccc(Cl)c2c1cc(C)n2CCNc1cc(-c2ccc3cnn(C)c3c2)ncn1 [compound 82]	–	–	6.71	6.01
COc1ccc(F)c2c1cc(C)n2CCNc1cc(-c2ccc(-c3cnco3)cc2)ncn1 [compound 202, [2-(7-Fluoro-4-methoxy-2-methyl-indol-1-yl)-ethyl]-[6-(4-oxazol-5-yl-phenyl)-pyrimidin-4-yl]-amine]	–	–	7.80	6.98
COc1cc(-c2cc(NCCn3c(C)cc4c(C)ccc(F)c43)ncn2)ccc1C(=O)O [compound 129, 4-{6-[2-(7-Fluoro-2,4-dimethyl-indol-1-yl)-ethylamino]-pyrimidin-4-yl}-2-methoxy-benzoic acid]	–	–	7.32	6.21
CCCCOc1cc(-c2cc(NCCn3c(C)cc4c(OC)cc(F)c(F)c43)ncn2)ccc1C(=O)O [Example 878, 2-Butoxy-4-{6-[2-(6,7-difluoro-4-methoxy-2-methyl-indol-1-yl)-ethylamino]-pyrimidin-4-yl}-benzoic acid]	9.00	7.66	–	–
CCOc1cc(-c2cc(NCCn3c(C)cc4cc(Cl)cc(Cl)c43)ncn2)ccc1C(=O)O [compound 153]	–	–	6.69	6.13
COc1ccc(F)c2c1cc(C)n2CCNc1cc(-c2ccc(N)cc2)ncn1 [Example 4, [6-(4-amino-phenyl)-pyrimidin-4-yl]-[2-(7-fluoro-4-methoxy-2-methyl-indol-1-yl)-ethyl]-amine]	–	–	7.66	6.39
CCOc1cc(-c2cc(NCCn3c(C#N)cc4c(OC)ccc(F)c43)ncn2)ccc1CC(=O)O [Example 873, (4-{6-[2-(2-Cyano-7-fluoro-4-methoxy-indol-1-yl)-ethylamino]-pyrimidin-4-yl}-2-ethoxy-phenyl)-acetic acid]	7.11	7.74	–	–
COc1ccc(F)c2c1cc(C#N)n2CCNc1cc(-c2c[nH]c3ncccc23)ncn1 [Example 978, 7-Fluoro-4-methoxy-1-{2-[6-(1H-pyrrolo[2,3-b]pyridin-3-yl)-pyrimidin-4-ylamino]-ethyl}-1H-indole-2-carbonitrile]	9.00	7.80	–	–
COc1ccc(F)c2c1c(F)c(C)n2CCNc1cc(-c2cc(C(F)(F)F)c(C(=O)O)s2)ncn1 [Example 1058, 5-{6-[2-(3,7-Difluoro-4-methoxy-2-methyl-indol-1-yl)-ethylamino]-pyrimidin-4-yl}-3-trifluoromethyl-thiophene-2-carboxylic acid]	7.29	7.72	–	–
CCc1cc(-c2cc(NCCn3c(C)cc4c(OC)ccc(Cl)c43)ncn2)sc1C(=O)O [compound 225]	–	–	7.60	6.91
CCOc1cc(-c2cc(NCCn3c(C#N)cc4c(OC)ccc(F)c43)ncn2)ccc1OCCC(=O)O [Example 927, 3-(4-{6-[2-(2-Cyano-7-fluoro-4-methoxy-indol-1-yl)-ethylamino]-pyrimidin-4-yl}-2-ethoxy-phenoxy)-propionic acid]	7.51	8.52	–	–
CCOc1cc(-c2cc(NCCn3c(C)cc4c(OC)ccc(F)c43)ncn2)sc1C(=N)NO [Example 1052, 3-Ethoxy-5-{6-[2-(7-fluoro-4-methoxy-2-methyl-indol-1-yl)-ethylamino]-pyrimidin-4-yl}-N-hydroxy-thiophene-2-carboxamidine]	8.52	8.15	–	–
Cc1ccc(F)c2c1cc(C)n2CCNc1cc(-c2cc(Br)c(C(=O)O)cc2F)ncn1 [compound 126]	–	–	6.89	6.03
COc1ccc(F)c2c1cc(C)n2CCNc1cc(-c2ccc(C(N)=O)cc2)ncn1 [compound 42, 4-{6-[2-(7-Fluoro-4-methoxy-2-methyl-indol-1-yl)-ethylamino]-pyrimidin-4-yl}-benzamide]	–	–	7.68	6.31
CCNc1cc(-c2cc(NCCn3c(C)cc4cccc(C#N)c43)ncn2)ccc1C(=O)O [compound 163]	–	–	6.95	6.07
CCOc1cc(-c2cc(NCCn3c(C)cc4c(OC)ccc(F)c43)ncn2)[nH]c1C(=O)O [Example 1014, 3-Ethoxy-5-{6-[2-(7-fluoro-4-methoxy-2-methyl-indol-1-yl)-ethylamino]-pyrimidin-4-yl}-1H-pyrrole-2-carboxylic acid]	8.15	6.45	–	–
Cc1ccc(F)c2c1cc(C)n2CCNc1cc(-c2ccc(CO)c(Cl)c2)ncn1 [compound 20]	–	–	7.03	6.48
CCOc1cc(-c2cc(NCCn3c(C#N)cc4c(Cl)cccc43)ncn2)sc1C(=O)O [Example 909, 5-{6-[2-(4-Chloro-2-cyano-indol-1-yl)-ethylamino]-pyrimidin-4-yl}-3-ethoxy-thiophene-2-carboxylic acid]	8.52	7.85	–	–
CCOC(=O)C#Cc1ccc(-c2cc(NCCn3c(C#N)cc4c(OC)ccc(F)c43)ncn2)cc1OC [Example 1050, (4-{6-[2-(2-Cyano-7-fluoro-4-methoxy-indol-1-yl)-ethylamino]-pyrimidin-4-yl}-2-methoxy-phenyl)-propynoic acid ethyl ester]	7.47	7.72	–	–
Cc1cc(F)cc2c1cc(C)n2CCNc1cc(-c2ccc(-c3noc(=O)[nH]3)cc2)ncn1 [compound 182]	–	–	7.25	6.85
COc1ccc(F)c2c1c(F)c(C#N)n2CCNc1cc(-c2cc(C(F)(F)F)c(C(=O)O)s2)ncn1 [Example 1059, 5-{6-[2-(2-Cyano-3,7-difluoro-4-methoxy-indol-1-yl)-ethylamino]-pyrimidin-4-yl}-3-trifluoromethyl-thiophene-2-carboxylic acid]	7.27	8.52	–	–
CCOc1cc(-c2cc(NCCn3c(C#N)cc4c(OC)ccc(F)c43)ncn2)ccc1NC(=O)C(=O)O [Example 853, N-(4-{6-[2-(2-Cyano-7-fluoro-4-methoxy-indol-1-yl)-ethylamino]-pyrimidin-4-yl}-2-ethoxy-phenyl)-oxalamic acid]	8.30	9.00	–	–
COc1ccc(F)c2c1cc(C)n2CCNc1cc(-c2cc(O)c(C(=O)O)s2)ncn1 [Example 799, 5-{6-[2-(7-Fluoro-4-methoxy-2-methyl-indol-1-yl)-ethylamino]-pyrimidin-4-yl}-3-hydroxy-thiophene-2-carboxylic acid]	7.68	7.23	–	–

The next lines start with the values.

pIC50 [1, 3]	pIC50 [2, 4]	pIC50 [1, 5]	pIC50 [2, 6]	SMILES
–	–	7.41	6.38	COc1ccc(F)c2c1cc(C)n2CCNc1cc(-c2ccc(-n3ccc(C)n3)cc2)ncn1 [compound 310, [2-(7-Fluoro-4-methoxy-2-methyl-indol-1-yl)-ethyl]-{6-[4-(3-methyl-pyrazol-1-yl)-phenyl]-pyrimidin-4-yl}-amine]
–	–	8.05	6.38	CCOc1cc(-c2cc(NCCn3c(C)cc4ccc(Cl)c(Cl)c43)ncn2)sc1C(=O)O [compound 236]
–	–	7.01	6.08	CSc1cc(-c2cc(NCCn3c(C)cc4c(C)c(F)cc(Cl)c43)ncn2)cc(Cl)c1C(=O)O [compound 331]
–	–	7.25	7.30	CCc1cc(-c2cc(NCCn3c(C)cc4c(OC)ccc(F)c43)ncn2)cc(Cl)c1C(=O)O [compound 346]
–	–	7.59	6.13	COc1ccc(F)c2c1cc(C)n2CCNc1cc(-c2ccc3c(C(=O)O)n[nH]c3c2)ncn1 [compound 389]
–	–	6.74	6.02	COc1ccc(Cl)c2c1cc(C)n2CCNc1cc(-c2cc(C)c(C(=O)O)c(C)c2)ncn1 [compound 287]
–	–	8.70	8.52	CCOc1cc(-c2cc(NCCn3c(C#N)cc4c(OC)cc(F)cc43)ncn2)sc1C(=O)O [compound 391]
–	–	7.60	7.33	COc1cc(F)c(F)c2c1cc(C)n2CCNc1cc(-c2ccc(-c3c[nH]cn3)cc2)ncn1 [compound 307, [2-(6,7-Difluoro-4-methoxy-2-methyl-indol-1-yl)-ethyl]-{6-[4-(1H-imidazol-4-yl)-phenyl]-pyrimidin-4-yl}-amine]
–	–	7.96	6.62	CCOc1cc(-c2cc(NCCn3c(C)cc4c(C)ccc(F)c43)ncn2)cc(C)c1C(=O)O [compound 347, 2-Ethoxy-4-{6-[2-(7-fluoro-2,4-dimethyl-indol-1-yl)-ethylamino]-pyrimidin-4-yl}-6-methyl-benzoic acid]
–	–	7.47	6.08	CCOc1cc(-c2cc(NCCn3c(C)cc4cc(C)cc(Cl)c43)ncn2)ccc1C(=O)O [compound 284]
–	–	7.89	7.17	CCOc1cc(-c2cc(NCCn3c(C)cc4cc(Cl)cc(F)c43)ncn2)sc1C(=O)O [compound 237]
